Reference: patent publication US20230045112A1, “DISULFIRAM AND OTHER REDOX-RELATED COMPOSITIONS FOR BRAIN TUMORS” (Texas Tech University System, priority 2014, published 2023)

Tests used:
[1] = target: T1, MGMT (Homo sapiens, UniProt P16455); assay: MGMT activity and protein (western blot) in drug-treated T98G and UW228 brain tumor cells; assay type: cell-based; set-up: endogenous in cells; host or cells: UW228, T98G; conditions: UW228 cells
T1 sequence (P16455 1-207): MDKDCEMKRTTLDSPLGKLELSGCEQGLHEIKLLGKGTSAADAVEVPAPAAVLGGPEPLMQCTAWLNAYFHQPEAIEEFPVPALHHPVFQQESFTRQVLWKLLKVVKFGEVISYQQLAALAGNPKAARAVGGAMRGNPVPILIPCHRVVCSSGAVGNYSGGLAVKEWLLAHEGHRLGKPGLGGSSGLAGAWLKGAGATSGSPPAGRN
Procedure: The DNA repair activity of MGMT was measured by the transfer of [3H]-labeled methyl groups from the O^6-position of guanine in the DNA substrate to the MGMT protein as described previously. The DNA substrate enriched in O6-methylguanine was prepared by reacting [3H]-methylnitrosourea (GE Healthcare, 60 Ci/mmol). Briefly, the cell pellets were washed with cold PBS, disrupted by sonication in the assay buffer (30 mM Tris-HCl pH 7.5, 0.5 mM DTT, 0.5 mM EDTA, 5% glycerol, and 20 μM spermidine) and centrifuged. The extracts (50-150 μg protein) were supplemented with the [3H]-DNA (10,000 cpm) and incubated at 37° C. The reactions were terminated by the addition of TCA, the DNA substrate was hydrolyzed at 80° C., and following filtration on glass fiber discs; the radioactivity present in protein precipitates was quantitated.
After trypsinization, the cell pellets were washed with cold PBS, and subjected to sonication in 50 mM Tris-HCl (pH 8.0) containing 1% glycerol, 1 mM EDTA, 0.5 mM PMSF and 2 mM benzamidine and centrifuged. Equal protein amounts from different treatments were electrophoresed on 12% SDS-polyacrylamide gels. Proteins were electro-transferred to Immobilon-P membranes. The membranes were blocked with 5% non-fat dry milk in Trisbuffered saline (TBS; pH 8.0) containing 0.1% Tween 20 for 3 hours, and subsequently incubated with appropriate primary antibodies. Antigen-antibody complexes were visualized by enhanced chemiluminiscence (Pierce Company). Band intensities were quantified using a Bio-Rad Versa Doc Imaging system.
Cells were trypsinized, washed and MGMT activity was determined in cell extracts (top panel). The same extracts were western blotted for MGMT protein. WB, western blot. […] Cells were exposed to CuDSF and analyzed for MGMT activity and protein as above. […] To delineate the appropriate time for alkylating drug treatments following MGMT inhibition, next, the time course of MGMT depletion by these three interventions was studied.
At times indicated, MGMT activity and protein levels were assessed.
MGMT performs a stoichiometric reaction to accomplish the DNA repair and is not recycled to its active form. Instead, the inactivated protein is degraded and fresh translation has to occur to restore the MGMT levels in cells. The rate and extent of this recovery is an important factor in the extent of damage introduced to the normal cell genomes such as the bone marrow stem cells. […] MGMT protein and activity levels were analyzed during the depletion and repletion (FIG. 3B).

[2] = target: T1, MGMT; set-up: endogenous in cells; host or cells: DAOY; conditions: cultured tumor cells; cited from earlier work
[3] = tested on: Normal astrocytes and NQO1-null cells; assay: Cytotoxicity of GNQ against normal and NQO1-null cells; assay type: cell-based
Source text: (§1) (FIG. 15B) Cytotoxicity of GNQ against normal cells astrocytes and primary neurons. (FIG. 15C) Cytotoxicity against NQO1 null cell line MDA-MB-231. (FIG. 15D) Cytotoxicity values against normal and cancer cells in micromoles. […] Normal astrocytes and NQO1-null cells were not sensitive to GNQ.

[4] = tested on: brain tumor cells; assay: Cytotoxicity of GNQ against brain tumor cells, NQO1 dependence; assay type: cell-based; conditions: coincubation with ES936 or dicumarol
Source text: as §1

[5] = target: NQO1 (Homo sapiens, UniProt P15559); assay: NQO1 substrate assay (NADH utilization); assay type: biochemical
Procedure: (§2) (FIG. 17A). The generation of ROS by GNQ was assessed by using fluorescent probes DCFDA and DHE (FIG. 17C). GNQ acts as NQO1 substrate in vitro. (FIG. 17B) Reduction pathways and subsequent reactions of GNQ. (FIG. 17C) Intracellular ROS levels were measured using DCFDA and DHE. (FIG. 17D) Anti-oxidants reversed the GNQ induced apoptosis. Antitumor efficacy of GNQ against intracranial DAOY medulloblastoma: The BBB permeability of GNQ was examined by pharmacokinetic analysis after IV injections in normal mice. […] Intracranial DAOY tumors were set up in nude mice and the tumor growth was assessed by quantitative bioluminescence. […] FIG. 18A, 18B show complete suppression of intracranial DAOY medulloblastoma growth by GNQ. GNQ was given IP at 25 mg/kg/d, 5 d/wk for about 4 weeks. […] (FIG. 18D) Ex-vivo bioluminescence from the isolated brains (FIG. 18E) Accumulation of GNQ in the brain when compared to plasma. (FIG. 18F) H&E staining of mouse brain sections showing the elimination of […] by GNQ. (FIG. 18G) Mean tumor volume radiance in the GNQ-treated group was compared with that in the control. Different substitutions (halogens, aryl, alkyl, and alkoxy groups) can be made to GNQ to append alkyl side chains to impart hydrophobicity to prepare BBB penetrating analogs.

[6] = tested on: Reactive oxygen species (ROS); assay: Intracellular ROS by GNQ (DCFDA and DHE); assay type: cell-based
Procedure: as §2

[7] = Pharmacokinetic analysis of GNQ after IV injections, BBB permeability; assay type: in vivo; conditions: mouse, brain, normal mice, read-out: accumulation in the brain, % of plasma levels
Procedure: as §2

[8] = tested on: intracranial DAOY medulloblastoma; assay: Intracranial DAOY medulloblastoma in nude mice treated with GNQ, bioluminescence; assay type: in vivo; conditions: IP 25 mg/kg/d, 5 d/wk for about 4 weeks
Procedure: Intracranial glioblastoma xenograft development in nude mice: GBM cells stably expressing luciferase and GFP are suspended at 2×10^5 cells/5 μl sterile PBS injected into mouse brains. For developing […], mice are anesthetized and placed on a stereotactic apparatus. For developing breast cancer brain metastases xenografts, brain-seeking breast cancer cells are injected into the left ventricle of the heart of each mouse under anesthesia. Three weeks later the mice are imaged for intracranial Firefly luciferase activity. Mice with intracranial bioluminescence are randomly divided into different groups for drug treatments. Imaging is performed 10 minutes after i.p. injection of D-luciferin (2 mg per animal) with mice lying in the prone position. Besides the bioluminescence studies, the survival of the human glioblastoma cell grafted mice after drug administrations are closely followed to generate the Kaplan-Meir curves.
(FIG. 17A). The generation of ROS by GNQ was assessed by using fluorescent probes DCFDA and DHE (FIG. 17C). GNQ acts as NQO1 substrate in vitro. (FIG. 17B) Reduction pathways and subsequent reactions of GNQ. (FIG. 17C) Intracellular ROS levels were measured using DCFDA and DHE. (FIG. 17D) Anti-oxidants reversed the GNQ induced apoptosis. […] Intracranial DAOY tumors were set up in nude mice and the tumor growth was assessed by quantitative bioluminescence. […]

[9] = tested on: DAOY cells; assay: Potentiation of TMZ cytotoxicity by GNQ; assay type: cell-based
Source text: (§3) To further validate the MGMT deficiency, tumor cells exposed to GNQ can be treated with BCNU and the interstrand DNA crosslinking induced by BCNU, which can be quantitated by ethidium bromide fluorescence assay. Thus, it is possible to take advantage of these altered DNA repair pathways to combine GNQ with TMZ and PARP inhibitors and perform antitumor efficacy studies in orthotopic xenografts of pediatric brain cancers.
(§4) FIG. 21A to 21D show the inhibition of MGMT activity (FIG. 21A) and its degradation (FIG. 21B) induced by GNQ in DAOY cells. […] (FIG. 21D) GNQ potentiates the cytotoxicity of TMZ.

[10] = target: T1, MGMT; assay: MGMT inhibition by GNQ in DAOY cells; assay type: cell-based; set-up: endogenous in cells; host or cells: DAOY
Source text: as §3, §4

[11] = tested on: cell lines; assay: Cytotoxicity of NO-aspirin for cell lines; assay type: cell-based
[12] = target: T1, MGMT; assay: MGMT activity and protein in MGMT-proficient human cancer cell lines (HT29, T47D, HCT116); assay type: cell-based; set-up: endogenous in cells; host or cells: HT29, T47D, HCT116

Sequence of NQO1 (P15559 whole entry): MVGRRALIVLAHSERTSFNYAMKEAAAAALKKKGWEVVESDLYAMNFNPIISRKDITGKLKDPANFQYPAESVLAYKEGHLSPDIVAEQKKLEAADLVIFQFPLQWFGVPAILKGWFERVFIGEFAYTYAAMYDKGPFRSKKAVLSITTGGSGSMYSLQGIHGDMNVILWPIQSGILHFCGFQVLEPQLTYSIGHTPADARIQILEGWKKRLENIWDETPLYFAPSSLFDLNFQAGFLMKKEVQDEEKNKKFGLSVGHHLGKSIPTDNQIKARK

**Q.** For Nc1nc(OCc2ccccc2)c2nc[nH]c2n1 [BG, O^6-benzylguanine], which “loss/inhibition of MGMT activity at 12 hours post-drug treatment” value ([1]; 50 μM, 12 hours) is on record?
**A.** Its value is 100%.

**Q.** What about the “recovery of MGMT activity, % of control levels” value ([1]; 48 hours post-drug in drug-free media after 50 μM for 12 hours) of the same compound?
**A.** Its value is 25 % of control levels.

**Q.** What about the “duration of suppression of DNA repair” value [2] of the same compound?
**A.** The value was 48 to 72 h.

**Q.** Which “sensitivity to GNQ” value [3] does the source give for O=C1NC2(c3ccccc31)c1ccccc1C1C(=O)c3cccc(O)c3C(=O)C12 (stereo not shown) [GNQ] here?
**A.** The value was “not sensitive”.

**Q.** And the “effect of NQO1 inhibitors on GNQ cytotoxicity” value [4]?
**A.** The value was “reversed by coincubation with NQO1 inhibitors ES936 or dicumarol”.

**Q.** What about the “NADH utilized throughout the assay” value [5] of the same compound?
**A.** Its value is “greater than 1 equiv. of NADH”.

**Q.** What about the ROS generation [6] of the same compound?
**A.** The ROS generation was “generates Reactive oxygen species (ROS)”.

**Q.** And the Kp [7]?
**A.** Its Kp is ≤ 0.11.

**Q.** What about the “body weight as a surrogate marker for toxicity” value [8] of the same compound?
**A.** Its value is “No changes in body weight”.

**Q.** What about the tumor bioluminescence [8] of the same compound?
**A.** Its tumor bioluminescence is “complete loss of bioluminescence”.

**Q.** What about the “sensitization to TMZ” value [9] of the same compound?
**A.** Its value is “sensitized to TMZ”.

**Q.** What about the MGMT inhibition [10] of the same compound?
**A.** The MGMT inhibition was “remarkably inhibited”.

**Q.** Which results are given for CC(=O)Oc1ccccc1C(=O)Oc1cccc(CO[N+](=O)[O-])c1 [NCX-4016, 2-(acetyloxy) benzoic acid 3-[(nitrooxy)methyl]phenyl ester]?
**A.** IC50 [11]: > 500 µM; MGMT protein degraded ([12]; 5 μM for 2 hours): 80-90%; inhibition of MGMT activity ([12]; HT29, T47D, HCT116, 5-10 μM, within 1 hour of exposure): 90%; MGMT protein regenerated ([12]; HT29 cells, 24 hours post-incubation in drug-free medium): More than 60%
